This is an account of results in PubChem BioAssay (NCI).

Values joined by “and” are separate entries in the source; they are usually repeats but may differ in a detail not shown here. Equal values may be shown once.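 Interpolation was linear, between the two tested concentrations surrounding the appropriate level; five concentrations were tested over 48 hours in 96-well plates. GI50: concentration for 50% inhibition of growth. At the TGI there is no net growth.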

Some test systems named below: SW-620 colon; KM12 colon; EKVX NSCLC; SK-OV-3 ovarian; RPMI-8226 leukemia; HOP-92 NSCLC; HCC-2998 colon; SF-268 CNS; MOLT-4 leukemia; NCI-H226 lung.
Common to all, as to test: inhibition of tumour cell growth, NCI panel, 48 h

In the case of `Cc1nc(N)nc(CCC(=O)Nc2cccc(C(F)(F)F)c2)c1-c1ccc(Cl)cc1`, the TGI in the test with SW-620 colon, in the test with KM12 colon, in the test with EKVX NSCLC, in the test with SK-OV-3 ovarian, with RPMI-8226 leukemia and in the test on HOP-92 NSCLC was above 100 µM in each case. Also, the TGI in the test with HCC-2998 colon, in the test with SF-268 CNS, with MOLT-4 leukemia and in the test on NCI-H226 lung was above 100 µM each time.
`COC1N(C2CC(O)C(CO)O2)C(=O)NC(=O)C1(F)Br` (stereo not given): the GI50 was 27.7 µM with SW-620 colon; 30.4 µM in the test with KM12 colon; 19.9 µM with EKVX NSCLC; 99.4 µM in the test with SK-OV-3 ovarian; 34.1 µM with RPMI-8226 leukemia; 13.2 µM in the test on HOP-92 NSCLC. For the same molecule, the GI50 is 1.14 µM in the test with HCC-2998 colon, 18.2 µM in the test with SF-268 CNS, 13.3 µM in the test on MOLT-4 leukemia and above 88.3 µM in the test with NCI-H226 lung. Moreover, the TGI in the test with SW-620 colon was 50 µM and > 100 µM; in the test on KM12 colon it was 50 µM and > 100 µM; in the test on EKVX NSCLC, 50 µM and > 100 µM; in the test with SK-OV-3 ovarian, above 100 µM; with RPMI-8226 leukemia it was 50 µM and > 100 µM; in the test with HOP-92 NSCLC, 43.8 µM and > 100 µM. The TGI in the test on HCC-2998 colon is 50 µM and 98 µM; in the test with SF-268 CNS, 50 µM and > 100 µM; in the test on MOLT-4 leukemia it was 15.8 µM and > 100 µM; with NCI-H226 lung it was above 100 µM.
Regarding `N#CC(C(=O)C(=O)Nc1c(Cl)cccc1Cl)c1ccccc1` (stereo not given), the GI50 with SW-620 colon, in the test with KM12 colon, in the test on EKVX NSCLC, in the test on SK-OV-3 ovarian, with RPMI-8226 leukemia and in the test on HOP-92 NSCLC was above 100 µM each time. Besides, the GI50 with HCC-2998 colon, with SF-268 CNS, in the test with MOLT-4 leukemia and in the test with NCI-H226 lung was above 100 µM throughout. For the same molecule, the TGI in the test on SW-620 colon, with KM12 colon, in the test with EKVX NSCLC, with SK-OV-3 ovarian, in the test with RPMI-8226 leukemia and in the test on HOP-92 NSCLC was above 100 µM throughout. Moreover, the TGI with HCC-2998 colon, with SF-268 CNS, in the test with MOLT-4 leukemia and in the test on NCI-H226 lung was above 100 µM in each case.
Turning to `O=C1/C(=C/c2ccc(Cl)c(Cl)c2)CN(C(=O)CCN2CCC(=NO)CC2)C/C1=C\c1ccc(Cl)c(Cl)c1`, the GI50 with SW-620 colon is 0.247 µM; with KM12 colon it was 0.368 µM; with EKVX NSCLC, 1.31 µM; with SK-OV-3 ovarian, 1.85 µM; in the test with RPMI-8226 leukemia, 0.253 µM; in the test with HOP-92 NSCLC, 1.56 µM. The GI50 was 0.807 µM in the test on HCC-2998 colon, 1.06 µM in the test on SF-268 CNS, 0.458 µM in the test with MOLT-4 leukemia and 1.26 µM in the test on NCI-H226 lung. Also, the TGI worked out at 0.708 µM with SW-620 colon; 1.14 µM in the test with KM12 colon; 3.05 µM in the test on EKVX NSCLC; 3.48 µM with SK-OV-3 ovarian; 0.84 µM with RPMI-8226 leukemia; 3.82 µM in the test on HOP-92 NSCLC. In addition, the TGI in the test on HCC-2998 colon was 2.11 µM; in the test on SF-268 CNS, 2.88 µM; in the test with MOLT-4 leukemia it was 2.26 µM; in the test on NCI-H226 lung it was 2.53 µM.
Regarding `CC1(C)OC[C@@H]([C@@]2(CO[Si](c3ccccc3)(c3ccccc3)C(C)(C)C)CC=CC(=O)O2)O1`, the GI50 in the test on SW-620 colon was 4.55 µM; with KM12 colon, 4.99 µM; with EKVX NSCLC it was 12.1 µM; in the test with SK-OV-3 ovarian it was 33 µM; in the test with RPMI-8226 leukemia it was 3.55 µM; in the test with HOP-92 NSCLC it was 6.72 µM. Moreover, the GI50 in the test with HCC-2998 colon was 13.7 µM; in the test on SF-268 CNS it was 10.5 µM; in the test on MOLT-4 leukemia it was 8.94 µM; with NCI-H226 lung, 5.54 µM. The TGI in the test with SW-620 colon is 46.7 µM; in the test on KM12 colon, 56.3 µM; in the test on EKVX NSCLC, 37.8 µM; in the test with SK-OV-3 ovarian it was above 100 µM; with RPMI-8226 leukemia, 71.9 µM; in the test with HOP-92 NSCLC, 26.2 µM. Moreover, the TGI in the test on HCC-2998 colon is 28.9 µM; with SF-268 CNS it was 45.8 µM; in the test with MOLT-4 leukemia it was above 100 µM; with NCI-H226 lung, 24.1 µM.
On to `COc1ccc2c(c1)C(=O)c1c-2c(Nc2ccccc2OC)nc2ccccc12`, for which the GI50 was above 100 µM in the test with SW-620 colon; above 100 µM in the test with KM12 colon; above 100 µM in the test with EKVX NSCLC; above 100 µM in the test on SK-OV-3 ovarian; above 100 µM in the test on RPMI-8226 leukemia; 26.4 µM in the test with HOP-92 NSCLC. The GI50 in the test on HCC-2998 colon, with SF-268 CNS, in the test on MOLT-4 leukemia and with NCI-H226 lung was above 100 µM in each case. Further, the TGI with SW-620 colon, with KM12 colon, with EKVX NSCLC, in the test with SK-OV-3 ovarian, in the test on RPMI-8226 leukemia and in the test on HOP-92 NSCLC was above 100 µM each time. Besides, the TGI in the test with HCC-2998 colon, in the test with SF-268 CNS, in the test on MOLT-4 leukemia and in the test with NCI-H226 lung was above 100 µM each time.
On to `Cc1ccc(S(=O)(=O)OCC/C(=C\[Si](C)(C)C)c2ccccc2)cc1`, for which the TGI with SW-620 colon, in the test with KM12 colon, in the test on EKVX NSCLC, with SK-OV-3 ovarian, in the test on RPMI-8226 leukemia and in the test on HOP-92 NSCLC was above 100 µM in each case. Further, the TGI in the test with HCC-2998 colon, in the test with SF-268 CNS, with MOLT-4 leukemia and with NCI-H226 lung was above 100 µM throughout.
For `COc1cc([C@@H]2c3cc4c(cc3[C@@H](NC(=O)c3ccc(C#N)cc3)C3COC(=O)[C@@H]32)OCO4)cc(OC)c1O` (stereo not given in full), the TGI with SW-620 colon was determined as 10.7 µM; with KM12 colon, 3.2 µM; with EKVX NSCLC, 5.73 µM; with SK-OV-3 ovarian, 2.87 µM; in the test on RPMI-8226 leukemia it was 11.7 µM; in the test with HOP-92 NSCLC, 22.9 µM. Besides, the TGI in the test on HCC-2998 colon was 4.18 µM; in the test with SF-268 CNS, 16.9 µM; in the test on MOLT-4 leukemia it was 12.4 µM; with NCI-H226 lung it was 0.508 µM.
On to `OCc1cc2c(cn1)[nH]c1ccc(NCc3ccccc3)cc12`, for which the TGI in the test on SW-620 colon was 78.7 µM; with KM12 colon, 43.3 µM; in the test on EKVX NSCLC it was above 100 µM; in the test with SK-OV-3 ovarian it was 86.2 µM; in the test on RPMI-8226 leukemia, 35.8 µM; in the test on HOP-92 NSCLC, 57.3 µM. The TGI with HCC-2998 colon turned out to be 58.9 µM; in the test on SF-268 CNS it was 70.9 µM; with MOLT-4 leukemia, 55.8 µM; in the test on NCI-H226 lung it was 54.4 µM.
